Results as given in ChEMBL document CHEMBL1150880, “Novel and insecticidal isobutylamides from dinosperma erythrococca” (J Nat Prod, 1998).
Activity calls are given as the source filed them. The rule behind the calls is not given here.

Key:
Heliothis virescens [1] = test: Insecticidal activity against tobacco budworm at 500 ppm after 3 to 5 days; type: functional
Musca domestica [2] = test: Insecticidal activity against housefly after 3 to 5 days relative to permethrin; type: functional
Musca domestica [3] = test: Insecticidal activity against housefly after 3 to 5 days; type: functional, organism-based
Musca domestica [4] = test: Insecticidal activity against housefly after 3 to 5 days relative to cypermethrin; type: functional, organism-based
Musca domestica [5] = test: Insecticidal activity against housefly at 500 ppm after 3 to 5 days; type: functional, organism-based
Heliothis virescens [6] = test: Insecticidal activity against tobacco budworm at 1000 ppm after 3 to 5 days; type: functional, organism-based
Musca domestica [7] = test: Insecticidal activity against housefly at 1000 ppm after 3 to 5 days; type: functional, organism-based
Musca domestica [8] = test: Insecticidal activity against housefly at 2500 ppm after 3 to 5 days; type: functional, organism-based
Heliothis virescens [9] = test: Insecticidal activity against tobacco budworm at 2500 ppm after 3 to 5 days; type: functional, organism-based
Heliothis virescens [10] = test: Insecticidal activity against tobacco budworm after 3 to 5 days; type: functional, organism-based
Heliothis virescens [11] = test: Insecticidal activity against tobacco budworm after 3 to 5 days relative to profenofos; type: functional

In the case of `CC(C)(O)CNC(=O)/C=C/C=C/Cc1ccccc1`, the Activity (Heliothis virescens [1]) is reported as 80%.

`CC(C)CNC(=O)/C=C/C=C/CC1CCc2ccc(Cl)cc2C1` (stereo not given) showed an Activity (Musca domestica [2]) of 40%.

With `CC(C)CNC(=O)/C=C/C=C/Cc1ccccc1` the EC50 (Musca domestica [3]) was 59.9 ppm, the Activity (Musca domestica [4]) was 1.8% and the Activity (Musca domestica [5]) was “Active”.

In the case of `CC(C)CNC(=O)CC1CCc2cc3c(cc2O1)OCO3` (stereo not given), the Activity (Heliothis virescens [1]) is reported as “inactive” and the Activity (Musca domestica [5]) is reported as “inactive”.

In the case of `CCCCC/C=C/C=C/C(=O)NCC(C)C`, the Activity (Heliothis virescens [6]) is reported as “inactive”, the Activity (Musca domestica [7]) is reported as “inactive” and the Activity (Musca domestica [8]) is reported as “Active”.

In the case of `COc1c2c(cc3ccoc13)CCC(C/C=C/C=C/C(=O)NCC(C)C)O2` (stereo not given), the Activity (Heliothis virescens [1]) is reported as “inactive” and the Activity (Musca domestica [5]) is reported as “inactive”.

With `CC(C)CNC(=O)/C=C/c1ccc2c(c1)OCO2` the Activity (Heliothis virescens [9]) was “inactive” and the Activity (Musca domestica [8]) was “inactive”.

`CC(C)CNC(=O)/C=C/C=C/CC1CCc2cc3c(cc2O1)OCO3` (stereo not given) [ERYTHROCOCCAMIDE A] was tested, and the Activity (Musca domestica [2]) was 9%, the EC50 (Musca domestica [3]) was 20.2 ppm and the EC50 (Heliothis virescens [10]) was 74.2 ppm. For the same molecule, the EC50 (Musca domestica [4]) was 3 ppm, the Activity (Musca domestica [5]) was “Active” and the Activity (Heliothis virescens [11]) was 9.9%.
